Experimental data reported in patent publication US11078168B2, “Substituted N-hydroxyamidinoheterocycles as modulators of indoleamine 2,3-dioxygenase” (PHENEX DISCOVERY VERWALTUNGS-GMBH, priority 2016, dated 2021).

Biological target: T1, Indoleamine 2,3-dioxygenase (Homo sapiens, UniProt P14902)
T1 construct: endogenous in cells; host or cells: SKOV-3 (ATCC HTB-77), stimulated with interferon gamma
Assay: SKOV-3 cellular Indoleamine 2,3-dioxygenase assay
Conditions: SKOV-3 cells, 50 ng/ml Interferon gamma, 100 μM L-Tryptophan, 24 hours, N-Formylkynurenin fluorescence detection; read-out: cell based activity
Description: SKOV-3 cellular Indoleamine 2,3-dioxygenase assay
SKOV-3 cells were obtained from the American Type Culture Collection (ATCC® HTB-77™) and maintained in McCoy's medium (Pan Biotech) supplemented with 10% fetal bovine serum and 1% Penicilin/Streptomycin. Cells were kept at 37° C. in a humidified incubator with 5% CO2. For assay preparation, cells were seeded at a density of 2*10^5/ml into black clear bottom 96 well plates in 100 μl medium/well supplemented with 50 ng/ml Interferon gamma (eBioscience, Thermo Fisher Scientific). After cells fully adhered to the plate, dilution series of compounds were added in medium containing additional L-Tryptophan to a final L-Tryptophan concentration of 100 μM. The cells were incubated for 24 hours. Detection of produced N-Formylkynurenin was performed by addition of 3-Methylpiperidine to a final concentration of 200 mM. The plates were sealed and heated to 65° C. for 20 minutes in a water bath. After cooling the fluorescence of each well was recorded with a Victor™X4 (PerkinElmer) plate reader at an emission wavelength of 535 nm and excitation at 405 nm (Tomek et al.; Anal Bioanal Chem (2013) 405:2515-2524., Tomek et al.; Biochim Biophys Acta. 2015 September; 1850(9):1772-80).

T1 sequence (P14902 whole entry): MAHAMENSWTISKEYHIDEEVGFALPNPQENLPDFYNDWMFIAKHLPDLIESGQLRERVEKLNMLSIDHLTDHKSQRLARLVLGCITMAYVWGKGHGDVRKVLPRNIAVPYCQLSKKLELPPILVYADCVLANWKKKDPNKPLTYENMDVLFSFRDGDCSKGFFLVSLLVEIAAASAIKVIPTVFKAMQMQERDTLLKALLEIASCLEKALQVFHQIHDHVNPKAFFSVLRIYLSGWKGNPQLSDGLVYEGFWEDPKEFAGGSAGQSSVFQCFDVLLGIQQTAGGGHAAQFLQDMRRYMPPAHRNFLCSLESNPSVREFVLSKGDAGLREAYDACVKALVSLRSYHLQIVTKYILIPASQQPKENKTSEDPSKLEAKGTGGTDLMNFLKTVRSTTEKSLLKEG

Compound	IC50 [nM]
CC(C)(O)c1ccc(C(=O)NCCSc2nonc2C(=NO)Nc2ccc(F)c(C(F)(F)F)c2)cc1 [107/19]	< 100
O=C(NCCSc1nonc1C(=NO)Nc1ccc(F)c(C(F)F)c1)c1ccc(C(O)(C(F)(F)F)C(F)(F)F)cc1 [107/20]	100 to 1000
O=C(CC(O)(C(F)(F)F)C(F)(F)F)NCCSc1nonc1C(=NO)Nc1ccc(F)c(C(F)(F)F)c1 [107/21]	< 100
O=C(NCCSc1nonc1C(=NO)Nc1ccc(F)c(C(F)(F)F)c1)C1=NOC(C(O)(C(F)(F)F)C(F)(F)F)C1 (stereo not shown) [107/22]	< 100
O=C(NCCSc1nonc1C(=NO)Nc1ccc(F)c(C(F)F)c1)c1ccc(C(F)(F)F)cc1 [107/23]	< 100
CS(=O)(=O)c1ccc(C(=O)NCCSc2nonc2C(=NO)Nc2ccc(F)c(C(F)F)c2)cc1 [107/24]	< 100
N#Cc1ccc(C(=O)NCCSc2nonc2C(=NO)Nc2ccc(F)c(C(F)F)c2)cc1 [107/25]	< 100
O=C(NCCSc1nonc1C(=NO)Nc1ccc(F)c(C(F)F)c1)c1ccc(-n2cnnc2)cc1 [107/26]	100 to 1000
O=C(NCCSc1nonc1C(=NO)Nc1ccc(F)c(C(F)F)c1)c1ccc(-n2cnnn2)cc1 [107/27]	< 100
N#CC1(c2ccc(C(=O)NCCSc3nonc3C(=NO)Nc3ccc(F)c(C(F)F)c3)cc2)CC1 [107/28]	< 100
O=C(NCCSc1nonc1C(=NO)Nc1ccc(F)c(C(F)F)c1)c1ccc(C2(O)COC2)cc1 [107/29]	< 100
O=C(NCCSc1nonc1C(=NO)Nc1ccc(F)c(C(F)F)c1)c1ccc(C(O)(C(F)(F)F)C(F)(F)F)nc1 [107/30]	< 100
NS(=O)(=O)CC(=O)NCCSc1nonc1/C(=N/O)Nc1ccc(F)c(C(F)(F)F)c1 [107/31]	< 100
CS(=O)(=O)CC(=O)NCCSc1nonc1/C(=N/O)Nc1ccc(F)c(C(F)F)c1 [107/32]	< 100
NS(=O)(=O)CC(=O)NCCSc1nonc1C(=NO)Nc1cc(F)c(F)c(C(F)F)c1 [107/33]	< 100
NS(=O)(=O)CC(=O)NCCSc1nonc1C(=NO)Nc1cncc(C(F)(F)F)c1 [107/34]	> 1000
NS(=O)(=O)CCC(=O)NCCSc1nonc1C(=NO)Nc1ccc(F)c(C(F)(F)F)c1 [107/35]	< 100
NS(=O)(=O)CCC(=O)NCCSc1nonc1C(=NO)Nc1ccc(F)c(C(F)F)c1 [107/36]	< 100
NC(=O)CCC(=O)NCCSc1nonc1C(=NO)Nc1ccc(F)c(C(F)F)c1 [107/37]	< 100
CS(=O)(=O)CCC(=O)NCCSc1nonc1C(=NO)Nc1ccc(F)c(C(F)F)c1 [107/38]	< 100
CS(=O)(=O)CCC(=O)NCCSc1nonc1C(=NO)Nc1cccc(Cl)c1 [107/39]	< 100

Compound	IC50 [nM]
CS(=O)(=O)CCC(=O)NCCSc1nonc1C(=NO)Nc1cccc(Br)c1 [107/40]	< 100
CS(=O)(=O)CCC(=O)NCCSc1nonc1/C(=N/O)Nc1ccc(F)c(Br)c1 [107/41]	< 100
O=C(O)C1CN(CCSc2nonc2C(=NO)Nc2ccc(F)c(C(F)F)c2)C1 [108/1]	> 1000
O=C(O)CC1CN(CCSc2nonc2C(=NO)Nc2ccc(F)c(C(F)F)c2)C1 [108/2]	100 to 1000
NS(=O)(=O)NCC[S+]([O-])c1nonc1C(=NO)Nc1ccc(F)c(Cl)c1 (stereo not shown) [109/1]	> 1000
[O-][S+](c1nonc1C(=NO)Nc1ccc(F)c(Br)c1)C1CC1 (stereo not shown) [109/2]	100 to 1000
[O-][S+](CC(F)(F)F)c1nonc1C(=NO)Nc1ccc(F)c(Br)c1 (stereo not shown) [109/3]	> 1000
O=C(NCCSc1nonc1C(=NO)Nc1ccc(F)c(Cl)c1)c1n[nH]c(=O)[nH]1 [117/1]	100 to 1000
O=C(NCCSc1nonc1C(=NO)Nc1ccc(F)c(Cl)c1)c1ccnc2nn[nH]c12 [117/2]	> 1000
Cn1nc(C(=O)NCCSc2nonc2C(=NO)Nc2ccc(F)c(Cl)c2)[nH]c1=O [117/3]	< 100
O=C(NCCSc1nonc1C(=NO)Nc1ccc(F)c(Cl)c1)c1ccc(C(O)(C(F)(F)F)C(F)(F)F)cc1 [117/4]	100 to 1000
O=C(NCCSc1nonc1C(=NO)Nc1ccc(F)c(Cl)c1)c1ccc(C(=O)O)nc1 [117/5]	> 1000
O=C(NCCSc1nonc1C(=NO)Nc1ccc(F)c(Cl)c1)c1nnc(C(F)(F)F)[nH]1 [117/6]	100 to 1000
Cc1nnc(C(=O)NCCSc2nonc2C(=NO)Nc2ccc(F)c(Cl)c2)o1 [117/7]	< 100
NS(=O)(=O)c1ccc(C(=O)NCCSc2nonc2C(=NO)Nc2ccc(F)c(Cl)c2)cc1 [117/8]	< 100
NC(=O)c1ccc(C(=O)NCCSc2nonc2C(=NO)Nc2ccc(F)c(Cl)c2)cc1 [117/9]	< 100
CS(=O)(=O)Nc1ccc(C(=O)NCCSc2nonc2C(=NO)Nc2ccc(F)c(C(F)F)c2)cc1 [117/10]	< 100
O=C(NCCSc1nonc1C(=NO)Nc1ccc(F)c(Cl)c1)c1ccc(NS(=O)(=O)C(F)(F)F)nc1 [117/11]	> 1000
NS(=O)(=O)CC(=O)NCCSc1nonc1/C(=N/O)Nc1ccc(F)c(C(F)F)c1 [117/12]	< 100
NS(=O)(=O)CC(=O)NCCSc1nonc1/C(=N/O)Nc1cccc(C(F)(F)F)c1 [117/13]	< 100
NS(=O)(=O)c1ccc(C(=O)NCCSc2nonc2C(=NO)Nc2ccc(F)c(C(F)F)c2)cc1 [117/14]	< 100

Compound	IC50 [nM]
NS(=O)(=O)c1ccc(C(=O)NCCSc2nonc2C(=NO)Nc2cccc(C(F)F)c2)cc1 [117/15]	< 100
Cn1nc(C(=O)NCCSc2nonc2C(=NO)Nc2ccc(F)c(C(F)(F)F)c2)[nH]c1=O [117/16]	< 100
Cn1nc(C(=O)NCCSc2nonc2C(=NO)Nc2ccc(F)c(C(F)F)c2)[nH]c1=O [117/17]	100 to 1000
Cn1nc(C(=O)NCCSc2nonc2C(=NO)Nc2cccc(C(F)(F)F)c2)[nH]c1=O [117/18]	100 to 1000
NS(=O)(=O)CC(=O)NCCSc1nonc1/C(=N/O)Nc1cccc(C(F)F)c1 [117/19]	< 100
CC(C)(C)OC(=O)NC1(CC(=O)NCCSc2nonc2C(=NO)Nc2ccc(F)c(C(F)F)c2)COC1 [117/20]	< 100
NS(=O)(=O)C1(C(=O)NCCSc2nonc2C(=NO)Nc2ccc(F)c(C(F)F)c2)CC1 [117/21]	< 100
NS(=O)(=O)CC(=O)NCCSc1nonc1C(=NO)Nc1cc(Br)c(F)cc1F [117/22]	< 100
NS(=O)(=O)CC(=O)NCCSc1nonc1C(=NO)Nc1ccc(F)c(Br)c1F [117/23]	< 100
NS(=O)(=O)CC(=O)NCCSc1nonc1C(=NO)Nc1cc(F)c(F)c(Br)c1 [117/24]	< 100
NC(=O)CC(=O)NCCSc1nonc1C(=NO)Nc1cccc(C(F)(F)F)c1 [119/1]	< 100
NC(=O)CC(=O)NCCSc1nonc1C(=NO)Nc1cccc(C(F)F)c1 [119/2]	< 100
NC(=O)CS(=O)(=O)NCCSc1nonc1C(=NO)Nc1ccc(F)c(C(F)F)c1 [119/3]	< 100
NC(=O)CS(=O)(=O)NCCSc1nonc1C(=NO)Nc1cccc(C(F)F)c1 [119/4]	< 100
NC(=O)CCS(=O)(=O)NCCSc1nonc1C(=NO)Nc1ccc(F)c(C(F)F)c1 [119/5]	< 100
NC(=O)CNS(=O)(=O)NCCSc1nonc1C(=NO)Nc1ccc(F)c(C(F)F)c1 [119/6]	< 100
CS(=N)(=O)NCCSc1nonc1C(=NO)Nc1ccc(F)c(C(F)F)c1 (stereo not shown) [120/1]	< 100
O=C(NCCSc1nonc1C(=NO)Nc1ccc(F)c(C(F)(F)F)c1)C1(O)CNC1 [123/1]	100 to 1000
COC1(C(=O)NCCSc2nonc2C(=NO)Nc2ccc(F)c(C(F)F)c2)CNC1 [123/2]	< 100
